Results reported in ChEMBL document CHEMBL1687935, “Ferrocenyl chalcones versus organic chalcones: a comparative study of their nematocidal activity” (Bioorg Med Chem, 2011).
Activity calls are given as the source filed them. The rule behind the calls is not given here.

Key:
Plasmodium falciparum = test: Antiplasmodial activity against Plasmodium falciparum; assay type: functional, organism-based
Caenorhabditis elegans [1] = test: Nematocidal activity against Caenorhabditis elegans assessed as mortality on day 3; assay type: functional; set-up: concentration or dose not given beside the values
Caenorhabditis elegans [2] = test: Nematocidal activity against Caenorhabditis elegans assessed as inhibition of reproduction on day 3; assay type: functional
[3] = Toxicity against Globodera pallida
[4] = Toxicity against Globodera rostochiensis
[5] = Inhibition of Globodera pallida hatching; assay type: functional
[6] = Inhibition of Globodera rostochiensis hatching; assay type: functional

Row | Compound | Activity (Caenorhabditis elegans [1]) | inhibition (INH) (Caenorhabditis elegans [2]) [%] | further results
1 | O=C(/C=C/c1cccnc1)c1ccc(F)cc1 | 100% | 0 | IC50 (Plasmodium falciparum): 0.017 mM
2 | O=C(/C=C/c1ccccc1)c1ccccc1 [CHALCONE] | 100% | 0 | LC50 [3]: 33 mM; LC50 [4]: 33 mM; IC50 [5]: 7 mM; IC50 [6]: 7 mM
3 | O=C(/C=C/c1ccccc1)c1cccc(Cl)c1 | 100% | 0 | –
4 | O=C(/C=C/c1ccccc1)c1ccc(Cl)cc1Cl | 100% | 0 | –
5 | CCOc1ccc(C(=O)/C=C/c2ccccc2)cc1 | 100% | 0 | –
6 | O=C(/C=C/c1ccccc1)c1ccc(F)cc1F | 100% | 0 | –
7 | O=C(/C=C/c1ccccc1)c1ccco1 | Active | – | inhibition (Caenorhabditis elegans [2]): Active
8 | CCCCOc1ccc(C(=O)/C=C/c2ccccc2)cc1 | Active | – | inhibition (Caenorhabditis elegans [2]): Active
9 | O=C(/C=C/c1ccccc1)c1cccs1 | 100% | 0 | –
10 | COc1ccc(C(=O)/C=C/c2ccccc2)c(OC)c1 | 100% | 0 | –
11 | O=C(/C=C/c1ccccc1)c1ccccc1Cl | Active | – | inhibition (Caenorhabditis elegans [2]): Active
